Source: patent publication US20090298824A1, “Organic compounds” (priority 2004, published 2009)

Test system: neutrophils
Test: Neutrophil chemotaxis assay
Format: cell-based
Conditions: 1.5 h; inhibition of neutrophil chemotaxis; chemoattractants 0.1-5 nM; 90 minutes migration at 37° C.; read-out: IC50 values in the above assay
Experimental: The in vitro inhibitory properties of these compounds are determined in the neutrophil chemotaxis assay. Assays were performed in a 96-well plate format according to previously published method (Frevert C W, et al., J Immunolog. Methods, 1998, 213, 41). 96-well chemotaxis chambers 5 μm were obtained from Neuro Probe, all cell buffers were obtained from Invitrogen Paisley, UK, dextran-T500 and Ficoll-Paque Plus™ density gradient centrifugation media were purchased from Pharmacia Biotech Buckinghamshire, UK. Calcein-AM dye was obtained from Molecular Probes. Neutrophils were isolated as previously described (Haslett, C., et al. Am J Path., 1985, 119:101). Citrated whole blood was mixed with 4% (w/v) dextran-T500 and allowed to stand on ice for 30 minutes to remove erythrocytes. Granulocytes (PMN) were separated from peripheral blood mononuclear cells by layering 15 ml of cell suspension onto 15 ml Ficoll-Paque PLUS density gradient and centrifuged at 250×g for 25 minutes. […] The labelled cells were washed with RPMI without phenol red+0.1% bovine serum albumin, prior to use the cells were counted and adjusted to a final concentration of 5×10^6 cells/ml. […] At the end of the incubation period, migrated cells were quantified using a multi-well fluorescent plate reader (Fluoroskan II™, Labsystems) at 485 nm excitation and 538 nm emission. […]

N#Cc1cc(O)c2[nH]c(Nc3cccc(Cl)c3Cl)nc2c1 [Example 2, 2-(2,3-Dichloro-phenylamino)-7-hydroxy-1H-benzoimidazole-5-carbonitrile]
IC50: 322 nM
